According to US12507703B2, “Methods, devices and compositions for preserving human milk” (The Trustees of Princeton University, priority 2023, dated 2025):
Several values for one entry are separate records, joined by “and”; a condition that tells them apart may be missing. Equal values may be shown once.

System: lipase
Assay: Lipase/lipolysis assay (EnzChek Lipase Substrate, quenched BODIPY-fatty acid conjugate) on stored human milk; note: test concentration or dose not given here
Conditions: not given

Point of comparison: `N=C(N)NCCC[C@@H](N)C(=O)O` [D-Arginine], “Lipase (RFU)” value 1215.288 RFU. Against it:
- CC(C)[C@H](C)CC[C@@H](C)[C@H]1CC[C@H]2[C@@H]3CC=C4C[C@@H](O)CC[C@]4(C)[C@H]3CC[C@]12C [Campesterol] — lower, 912.1206 RFU
- CC(=O)OC[C@H]1O[C@@H](O[C@@H]2[C@@H](O)[C@H](O[C@@H]3[C@H](O)C(C)(C)C[C@H]4C5=CC[C@@H]6[C@@]7(C)CC[C@H](O[C@@H]8O[C@H](C(=O)O)[C@@H](O)[C@H](O)[C@H]8O[C@@H]8O[C@H](CO)[C@H](O)[C@H](O)[C@H]8O[C@@H]8O[C@H](CO)[C@@H](O)[C@H](O)[C@H]8O)[C@](C)(CO)[C@@H]7CC[C@@]6(C)[C@]5(C)CC[C@@]34C)OC[C@@H]2O)[C@H](OC(C)=O)[C@@H](OC(C)=O)[C@@H]1OC(C)=O [Soyasaponin Ab] — lower, 976.6301 RFU
- C=C1C(=O)O[C@@H]2[C@H]3C(CO)=CC(=O)C3=C(C)C[C@H](OC(=O)Cc3ccc(O)cc3)[C@@H]12 [Lactupicrin] — lower, 995.7975 RFU
- COc1cc2oc(=O)ccc2c(OC)c1O [Fraxinol] — lower, 772.0122 RFU
- CC(C)(O)C1Cc2cc3cc(-c4cc(O)cc(O)c4)oc3cc2O1 (stereo not drawn) [Moracin O] — lower, 899.9132 RFU
- C[C@H]1[C@H](C)CC[C@]2(C)CC[C@]3(C)C(=CC[C@@H]4[C@@]5(C)CC[C@@H](O)[C@](C)(C(=O)O)[C@@H]5CC[C@]43C)[C@H]12 [β-Boswellic acid] — lower, 813.2666 RFU
- O=C(O)CCCC(=O)O [Glutaric acid] — lower, 944.8681 RFU
- CC(C)(C)[C@]1(O)CC2OC(=O)CC23C(=O)OC2OC(=O)[C@H](O)C231 (stereo partly drawn) [Bilobalide] — lower, 1114.018 RFU
- COc1c(CC=C(C)C)c(O)cc2oc(=O)c3c4ccc(O)cc4oc3c12 [Neoglycyrol] — lower, 923.0229 RFU
- O=P(O)(O)OC(CO)CO [b-Glycerol Phosphate] — lower, 984.3562 RFU
- Mannan — lower, 1091.353 RFU
- CC1(C)[C@H](C(=O)O)N2C(=O)C[C@H]2S1(=O)=O [Sulbactam] — lower, 759.2536 RFU
- CCCCCCCCCCCCCCC[C@@H](O)[C@@H](N)CO [D-Erythro-dihydrosphingosine] — lower, 1051.007 RFU
- CC1=CCC(=O)O1 [α-Angelica lactone] — lower, 1137.248 RFU
- NCCO [2-Aminoethanol] — lower, 533.8 RFU
- C[C@@H]1NC(=O)N[C@@H]1CCCCCC(=O)O [D-Desthiobiotin] — lower, 791.1157 RFU
- Medicarpin — lower, 622.3141 RFU
- C/C(=C\CC[C@@H](C)[C@H]1CC[C@@]2(C)C3=C(CC[C@]12C)[C@@]1(C)CCC(=O)C(C)(C)[C@@H]1CC3=O)C(=O)O [Ganoderic acid DM] — lower, 1077.482 RFU
- (+)-Secoisolariciresinol — lower, 1148.179 RFU
- CC(=O)Oc1c(C)c(C)c2c(c1C)CCC(C)(CCC[C@H](C)CCC[C@H](C)CCCC(C)C)O2 (stereo partly drawn) [D-α-Tocopherol acetate] — lower, 1194.717 RFU
- Liquiritin apioside — lower, 875.5815 RFU
- COc1cc(/C=C/C(=O)OCC[N+](C)(C)C)cc(OC)c1O.N#C[S-] [Sinapine (thiocyanate)] — lower, 1052.349 RFU
- COc1ccc(C(=O)/C=C/c2ccc(O)cc2)c(O)c1CC=C(C)C [Compound 4-Hydroxyderricin] — lower, 842.4877 RFU
- O=c1ccc2ccc(O[C@@H]3O[C@H](CO)[C@@H](O)[C@H](O)[C@H]3O)cc2o1 [Skimmin] — lower, 1029.943 RFU
- O=C(O[C@@H]1Cc2c(O)cc(O)cc2O[C@@H]1c1ccc(O)c(O)c1)c1cc(O)c(O)c(O)c1 [(−)-Epicatechin gallate] — lower, 982.8268 RFU
- CC(C)=CCC[C@](C)(O[C@@H]1O[C@H](CO)[C@@H](O)[C@H](O)[C@H]1O)[C@H]1CC[C@]2(C)[C@@H]1[C@H](O)C[C@@H]1[C@@]3(C)CC[C@H](O)C(C)(C)[C@@H]3[C@@H](O[C@@H]3O[C@H](CO)[C@@H](O)[C@H](O)[C@H]3O)C[C@]12C [Ginsenoside Rg1] — lower, 1026.433 RFU
- COc1cc(OC)c2c(=O)cc(-c3ccc(OC)c(OC)c3)oc2c1 [5,7,3′,4′-Tetramethoxyflavone] — lower, 1023.427 RFU
- COc1ccc(-c2cc(=O)c3c(O)c(OC)c(OC)cc3o2)cc1OC [5-Desmethylsinensetin] — higher, 571020.7 RFU
- O.O.O=c1c(O)c(-c2ccc(O)c(O)c2)oc2cc(O)cc(O)c12 [Quercetin (dihydrate)] — lower, 1081.937 RFU
- C[C@@]12C=Cc3occc3[C@H]1CC[C@@]13C[C@@H](CC[C@H]12)[C@@](O)(CO)C3 [Kahweol] — lower, 608.7131 RFU
- Cc1cc(O[C@@H]2O[C@H](CO)[C@@H](O)[C@H](O)[C@H]2O)c2c(c1)C(=O)c1cc(O)cc(O)c1C2=O [Emodin-8-glucoside] — lower, 1174.326 RFU
- OC1OC[C@@H](O[C@@H]2OC[C@@H](O)[C@H](O)[C@H]2O)[C@H](O)[C@H]1O (stereo partly drawn) [Xylobiose] — lower, 862.1511 RFU
- C=C1CC[C@]2(C)CC[C@]3(C)[C@H](CC[C@@H]4[C@@]5(C)CC[C@H](O)C(C)(C)[C@@H]5CC[C@]43C)[C@H]2[C@@H]1C [Taraxasterol] — lower, 974.5848 RFU
- C[C@@H]1CC[C@@]2(NC1)O[C@H]1C[C@H]3[C@@H]4CC=C5C[C@@H](O)CC[C@]5(C)[C@H]4CC[C@]3(C)[C@H]1[C@@H]2C [Solasodine] — lower, 1073.206 RFU
- CC1(C)CC[C@]2(C(=O)O[C@@H]3O[C@H](CO)[C@@H](O)[C@H](O)[C@H]3O)CC[C@]3(C)C(=CC[C@@H]4[C@@]5(C)CC[C@H](O[C@@H]6O[C@H](C(=O)O)[C@@H](O)[C@H](O)[C@H]6O[C@@H]6O[C@H](CO)[C@@H](O)[C@H](O)[C@H]6O)C(C)(C)[C@@H]5CC[C@]43C)[C@@H]2C1 [Ginsenoside Ro] — lower, 1082.912 RFU
- CC(C)=CCc1cc2ccc(=O)oc2cc1O [Demethylsuberosin] — lower, 917.5135 RFU
- CSCC[C@H](NC=O)C(=O)O [For-Met-OH] — lower, 819.8295 RFU
- OC[C@H]1O[C@H](OC[C@H]2OC(O)[C@H](O)[C@@H](O)[C@@H]2O)[C@H](O)[C@@H](O)[C@@H]1O (stereo partly drawn) [Isomaltose] — lower, 1074.051 RFU
- CCCCCCCCCC(=O)OCC(COC(=O)CCCCCCCCC)OC(=O)CCCCCCCCC [Trisdecanoin] — lower, 969.1379 RFU
- CC(=O)O[C@@H]1CC[C@@]2(C)[C@@H](CC[C@]3(C)[C@@H]2CC=C2[C@@H]4[C@@H](C)[C@H](C)CC[C@]4(C)CC[C@]23C)[C@@]1(C)C(=O)O [3-Acetyl-beta-boswellic acid] — lower, 752.9436 RFU
- C[C@H](CCC(=O)O)[C@H]1CC[C@H]2[C@@H]3C(=O)C[C@@H]4C[C@H](O)CC[C@]4(C)[C@H]3C[C@H](O)[C@]12C [7-keto-Deoxycholic acid] — lower, 890.8412 RFU
- COc1cc(/C=C/C(=O)CC(=O)CCc2ccc(O)c(OC)c2)ccc1O [Dihydrocurcumin] — lower, 1140.2 RFU
- CN(C)C(N)=NCCC[C@H](N)C(=O)O [Asymmetric dimethylarginine] — lower, 806.9828 RFU
- O=C(O)/C=C/c1c[nH]cn1 [Urocanic acid] — lower, 1101.226 RFU
- C=C[C@]1(C)CC[C@@H](C(=C)C)C[C@H]1C(=C)C [β-Elemene] — lower, 1099.979 RFU
- O.O.OC[C@H]1O[C@H](O[C@H]2O[C@H](CO)[C@@H](O)[C@H](O)[C@H]2O)[C@H](O)[C@@H](O)[C@@H]1O [D-(+)-Trehalose dihydrate] — lower, 1045.976 RFU
- Cc1cc(O)cc2c1O[C@](C)(CCC[C@H](C)CCC[C@H](C)CCCC(C)C)CC2 [Delta-Tocopherol] — higher, 1328.881 RFU
- CC/C=C\CC1=C(C)CCC1=O [cis-Jasmone] — lower, 1015.76 RFU
- CC1(C)Oc2cc3oc(-c4cc(O)cc(O)c4)cc3cc2C[C@H]1O [Moracin P] — lower, 751.9577 RFU
- C=C(C[C@@H](O)[C@](C)(O)[C@H]1CC[C@@]2(O)C3=CC(=O)[C@@H]4C[C@@H](O)[C@@H](O)C[C@]4(C)[C@H]3CC[C@]12C)C(C)C [Polyporusterone B] — lower, 1175.382 RFU
- CCCCCC1=C(C)CCC1=O [Dihydrojasmone] — lower, 884.3631 RFU
- C[C@H](O)[C@H](O)c1cnc2nc(N)[nH]c(=O)c2n1 [Compound 6-Biopterin] — higher, 1286.983 RFU
- Carbinoxamine maleate salt — lower, 807.8179 RFU
- c1cncc(C2=NCCC2)c1 [Myosmine] — lower, 909.737 RFU

For `O=C(O)COc1ccccc1` [Phenoxyacetic acid], the “Lipase (RFU)” value was 872.4796 RFU and 824.9859 RFU.
For Thiamine nitrate, the “Lipase (RFU)” value was 1094.609 RFU and 1092.499 RFU.
For `O=C(CO)[C@@H](O[C@H]1O[C@H](CO)[C@@H](O)[C@H](O)[C@H]1O)[C@H](O)[C@H](O)CO` [Turanose], the “Lipase (RFU)” value was 1221.239 RFU and 697.9672 RFU.
In the case of `COc1ccccc1C(=O)O` [2-Methoxybenzoic acid], the “Lipase (RFU)” value is reported as 739.8823 RFU and 1090.701 RFU.
For Disodium succinate, the “Lipase (RFU)” value was 1168.659 RFU and 874.998 RFU.
`CC1=C(/C=C/C(C)=C/C=C/C(C)=C/C=C/C=C(C)/C=C/C=C(\C)C=O)C(C)(C)CCC1` [β-Apo-8′-carotenal] was tested, and the “Lipase (RFU)” value was 958.4764 RFU and 851.8107 RFU.

Same assay, conditions: (hydrochloride)

`Cc1ncc(CO)c(CO)c1O.Cl` [Pyridoxine (hydrochloride)] was tested, and the “Lipase (RFU)” value was 911.6428 RFU and 799.8007 RFU.

Same assay, conditions: (monohydrate)

In the case of `C[C@H](O)[C@H](O)[C@@H](O)[C@@H](O)C=O.O` [Rhamnose (monohydrate)], the “Lipase (RFU)” value is reported as 978.8722 RFU and 922.0222 RFU.
